# What was measured:
# [1] = tested on: cellulase; assay: Effect of xylose oligomer chain length on Avicel glucan initial hydrolysis rate; assay type: biochemical
# Text: FIG. 9 depicts the effect of xylose oligomer chain length on Avicel glucan initial hydrolysis rate at a cellulase loading of thirty FPU/g glucan and CBU to FPU activity ration of two.
# Furthermore, these xylooligomers have been found in the liquor from pretreatment prior to enzymatic hydrolysis, with the amounts depending upon the type of pretreatment, substrate, and substrate loading. Furthermore, such xylooligomers can slow glucose and xylose release. […] In accordance with an aspect of the disclosure, 12.5 mg/ml (eighty mM xylose equivalent) of xylose, 6.6 mg/ml (forty-six mM xylose equivalent) and 16.6 mg/ml (one-hundred seventeen mM xylose equivalent) of xylobiose, and 6.6 mg/ml (forty-eight mM xylose equivalent) of xylotriose were added to two ml centrifuge tubes containing thirty mg of commercial grade cellulose in 1.5 ml of liquid at a cellulase loading of thirty FPU/g glucan, and initial hydrolysis rates were measured. Xylose alone at this concentration inhibited yields by about ten percent, but about half as much xylobiose, forty-six mM of xylose equivalent, reduced glucose release by eighteen percent. Furthermore, glucose release dropped by about thirty-two percent at a higher xylobiose loading of one-hundred seventeen mM of xylose equivalent. Adding almost half of the xylose concentration and about the same as the lower concentration of xylobiose, xylotriose (forty-eight mM xylose equivalent) reduced glucose release even more, by about twenty-four percent.
# [2] = tested on: cellulase; assay: Hydrolysis of Avicel cellulose with added birch wood xylan, xylose and β-xylosidase; assay type: biochemical; details: xylose equivalent to 1% (w/v) xylan mixed with Avicel; 7.5 FPU/g glucan; 4 h rate
# Experimental: Avicel+xylan−1% (w/v) each, Avicel+xylose−xylose equivalent to 1% (w/v) xylan. b-xylosidase loading was 28 mg/g glucan. Error bars represent the standard deviation.
# Hydrolysis of one percent (w/w) commercial grade cellulose with an equal mass of birch wood xylan [approximately eighty-six percent xylan] was performed in triplicate at a cellulase plus β-glucosidase loading of 16.1 mg/glucan. Hydrolysis was also performed at a similar cellulase loading but supplemented with β-xylosidase at a loading of 14 mg/g glucan. To evaluate the effect of xylose alone on cellulose hydrolysis, cellulose containing an equivalent amount of xylose (1.053*amount of xylan) was enzymatically hydrolyzed in parallel. Controlled experiments for cellulose hydrolysis without xylan, cellulose with β-xylosidase only, and a substrate blank containing cellulose plus xylan were run in parallel. Samples were collected four, twenty-four, forty-eight, and seventy-two hours after initiation of hydrolysis and analyzed for sugars. Liquids produced by seventy-two hours of hydrolysis of samples containing xylan were post hydrolyzed to determine the amount of xylooligomers as described herein.
# Referring now to FIG. 5, an aspect of the disclosure is the addition of β-xylosidase to effect hydrolysis of cellulose. […]
# The concentration of xylose in the hydrolyzate was measured to be 5.5 g/l. […]
compound,measurement,setting,value
OC1OC[C@@H](O[C@@H]2OC[C@@H](O)[C@H](O)[C@H]2O)[C@H](O)[C@H]1O (some centres unmarked) [xylobiose],reduction of glucose release (Avicel initial hydrolysis),"[1]; xylobiose 6.6 mg/ml (forty-six mM xylose equivalent), thirty FPU/g glucan",eighteen
same,reduction of glucose release (Avicel initial hydrolysis),"[1]; xylobiose 16.6 mg/ml (one-hundred seventeen mM xylose equivalent), thirty FPU/g glucan",about thirty-two
O=C[C@H](O)[C@@H](O)[C@H](O)CO [xylose],reduction of glucose release (Avicel initial hydrolysis),"[1]; xylose 12.5 mg/ml (eighty mM xylose equivalent), cellulase thirty FPU/g glucan",about ten
same,inhibition of enzyme action,[2],12%
OC1OC[C@@H](O[C@@H]2OC[C@@H](O[C@@H]3OC[C@@H](O)[C@H](O)[C@H]3O)[C@H](O)[C@H]2O)[C@H](O)[C@H]1O (some centres unmarked) [xylotriose],reduction of glucose release (Avicel initial hydrolysis),"[1]; xylotriose 6.6 mg/ml (forty-eight mM xylose equivalent), thirty FPU/g glucan",about twenty-four

# Reference: US20110201084A1, “ENZYMATIC HYDROLYSIS OF CELLULOSIC BIOMASS THROUGH ENHANCED REMOVAL OF OLIGOMERS” (THE REGENTS OF THE UNIVERSITY OF CALIFORNIA, priority 2008, published 2011)
